Reference: US20240300942A1, “SMALL MOLECULES FOR TREATEMENT OF CANCER” (VRise Therapeutics Inc., priority 2021, published 2024)
pIC50: −log10 of the molar value.

Tests used:
eCT26 = test: 3D cell proliferation assay, eCT26 (engineered for KRASG12C mutation); format: cell-based; conditions: 168 h, 7 day
Procedure: (§1) Growth inhibition assays was carried out using 10% FBS supplemented media. Cells were seeded at a desired concentration of 1000-6000 cells/well in a well plate with desired number of wells. Test compounds at a desired concentration range were added after 24 hours. Growth was assessed using the Cell Titer-Glo (CTG. Cell Signaling) for measuring reduction at 0 h (prior to the addition of the test compound) and 3 day (2D) or 7 day (3D) after the addition of test compound. Absorbance read on a BIO-RAD iMark Microplate or any equivalent microplate reader at a predetermined a wavelength for e.g. 450 nm. Data was be analysed and percent inhibition and/or IC50 for each test compound is calculated accordingly. Results: Data provide for a representative Cpd A across various cell lines including selectivity

CO-04-0070 = test: 3D cell proliferation assay, CO-04-0070 patient derived cell line; format: cell-based; conditions: 168 h, CO-04-0070 (PDC), 7 day
Procedure: as §1

[1] = system: NCI-H358 Human Non-Small Cell Lung Cancer Xenograft; test: Anti-tumor effect in female Balb/c nude mice bearing NCI-H358 xenograft; format: in vivo
Procedure: NCI-H358 Xenograft was used to test representative compound of the invention where in NCI-H358 cells were inoculated in a mice model representing Lung Cancer with […] comprising of Control (Vehicle treated, GI) and two treatment cohorts/group namely Paclitaxel as standard (10 mg/kg Q3D, IV, G3) and test compound (100 mg/kg QD, Cpd A, G3) with each cohorts/group. Treatment was initiated when maximum tumor growth reached >200 mm3 and continued till the Vehicle are reached a maximum tumor volume of 2000 mm3.

NCI-H23 = test: 3D cell proliferation assay, KRAS G12C mutant cell line NCI-H23; format: cell-based; conditions: Homo sapiens, 168 h, 7 day
Procedure: as §1

A549 = test: 2D cell proliferation assay, non-KRAS G12C mutant cell line A549; format: cell-based
Procedure: as §1

human KRAS G12C protein = human KRAS G12C protein (Homo sapiens, UniProt P01116, G12C); test: HTRF-based nucleotide exchange assay detecting GTP binding to K-Ras; format: biochemical; conditions: KRAS G12C (aa 2-169), SOS1 (aa 564-1049), read-out: IC50, SOS1 mediated nucleotide exchange
Procedure: Compounds (each 10 concentrations or any other concentration of choice at 3-fold or fold of choice for serial dilutions with a starting concentration of ˜300 um or 100 μM or 50 uM) were then delivered to the reaction wells using acoustic dispenser (Echo, Labcyte) and incubated with the Kras/aGST-Tb antibody for 1-hour at room temperature. After 1-hour incubation 5 μL of SOS1/GTP solution (SOS1—(corresponding to amino acid 564-1049) and GDP-DY-647P1 prepared using reaction buffer-20 mM Hepes, pH7.4, 150 mM Nacl, 5 mM MgCl2, 1 mM DTT, 0.05% BSA, 0.0025% NP40) was added to reaction wells to initiate the exchange reaction. HTRF based SOS1 mediated exchange of GDP to GTP was measured on a microplate reader PEHRAstar (BMG Labtech) at an excitation wavelength of 337 nm and emission wavelengths of 665 and 620 nm. No-SOS1 reaction or highest control compound concentration was used as blank and % inhibition was calculated and/or IC50 was determined using Sigmoidal dose response (variable slope) equation.

SW1463 = test: 3D cell proliferation assay, KRAS G12C mutant cell line SW1463; format: cell-based; conditions: Homo sapiens, 168 h, 7 day
Procedure: as §1

NCI-H1792 = test: 3D cell proliferation assay, KRAS G12C mutant cell line NCI-H1792; format: cell-based; conditions: Homo sapiens, 168 h, 7 day
Procedure: as §1

NCI-H1373 = test: 3D cell proliferation assay, KRAS G12C mutant cell line NCI-H1373; format: cell-based; conditions: Homo sapiens, 168 h, 7 day
Procedure: as §1

HCT116 = test: 2D cell proliferation assay, non-KRAS G12C mutant cell line HCT116; format: cell-based
Procedure: as §1

Calu-1 = test: 3D cell proliferation assay, KRAS G12C mutant cell line Calu-1; format: cell-based; conditions: Homo sapiens, 168 h, 7 day
Procedure: as §1

SW-837 = test: 3D cell proliferation assay, KRAS G12C mutant cell line SW-837; format: cell-based; conditions: Homo sapiens, SW837, 168 h, 7 day
Procedure: as §1

Chain of human KRAS G12C protein (P01116 2-169 isoform P01116-2 G12C): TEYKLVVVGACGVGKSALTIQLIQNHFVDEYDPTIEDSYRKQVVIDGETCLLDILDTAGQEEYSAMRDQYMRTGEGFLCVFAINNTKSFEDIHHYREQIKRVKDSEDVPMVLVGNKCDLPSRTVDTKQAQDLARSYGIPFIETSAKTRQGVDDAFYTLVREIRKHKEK

`C=CC(=O)N1CCN(c2nc(OC[C@@H]3CCCN3C)c(C#N)c3c2CCN(c2cccc4cccc(Cl)c24)C3)C[C@@H]1CC#N` (single isomer, unassigned) [Ex 25] was tested, and the pIC50 (eCT26) was > 7.00, the pIC50 (CO-04-0070) was 6.70 to 7.00 and the “reduction in tumour volume as compared to Paclitaxel” value ([1]; 100 mg/kg QD vs Paclitaxel 10 mg/kg Q3DX3 Weeks, IV) was “statistically significant reduction”. The “Tumor Growth inhibition (TGI)” value ([1]; 100 mg/kg QD, NCI-H358 xenograft, n=5) was > 65%, the “reduction in tumor volume” value ([1]; 100 mg/kg QD, from day 3 onwards, P<0.01) was “statistically significant” and the “effect on overall body weight” value ([1]; over the 21-day study period) was “No significant effect”. For the same compound, the pIC50 (NCI-H23) was 6.70 to 7.00, the “Fold Selectivity over KRAS G12C Mutant Cell Line” value (A549) was “ΩΩΩ (ΩΩΩ >600 fold)” and the pIC50 (human KRAS G12C protein) was > 8.00. The pIC50 (SW1463) was > 7.00, the pIC50 (NCI-H1792) was 6.00 to 6.70 and the pIC50 (NCI-H1373) was 6.70 to 7.00. For the same compound, the “Fold Selectivity over KRAS G12C Mutant Cell Line” value (HCT116) was “Ω (Ω = >100 fold)”, the pIC50 (Calu-1) was 6.70 to 7.00 and the pIC50 (SW-837) was 6.70 to 7.00.
